These results are taken from patent publication US20030143191A1, “Chemokine beta-1 fusion proteins” (priority 2001, published 2003).

The subject of one experiment is HIV. To be noted: cited from earlier work.
For the next experiment, the system named is NF-KB. Kind of experiment: NF-KB/SV40/SEAP reporter assay in Jurkat T-cells. It is filed as cell-based. As to conditions: NF-KB/SV40/SEAP/Neo Jurkat T-cells; 0.1, 1, 10 ng; positive control. An excerpt:
NF-KB (Nuclear Factor KB) is a transcription factor activated by a wide variety of agents including the inflammatory cytokines IL-1 and TNF, CD30 and CD40, lymphotoxin-alpha and lymphotoxin-beta, by exposure to LPS or thrombin, and by expression of certain viral gene products. As a transcription factor, NF-KB regulates the expression of genes involved in immune cell activation, control of apoptosis (NF-KB appears to shield cells from apoptosis), B and T-cell development, anti-viral and antimicrobial responses, and multiple stress responses.
Due to its central role and ability to respond to a range of stimuli, reporter constructs utilizing the NF-KB promoter element are used to screen the fusion protein. Activators or inhibitors of NF-KB would be useful in treating, preventing, and/or diagnosing diseases. For example, inhibitors of NF-KB could be used to treat those diseases related to the acute or chronic activation of NF-KB, such as rheumatoid arthritis.
To construct a vector containing the NF-KB promoter element, a PCR based strategy is employed. The upstream primer contains four tandem copies of the NF-KB binding site ([…]) (SEQ ID NO: 48), 18 bp of sequence complementary to the 5′ end of the SV40 early promoter sequence, and is flanked with an XhoI site: […]
For orientation: Reporter assays use an easily measured gene product as a stand-in for the process of interest.

Turning to `CC[C@H]1C(=O)Nc2ccc(F)cc2N1C(=O)OC(C)C` [GW-420867×], the “activity relative to HBY097” value in the experiment on HIV was 25 fold. Turning to TNF alpha, in the experiment with NF-KB, the “activation (SEAP reporter activity)” value is 5-10 fold. `Nc1nc(=O)n([C@@H]2CS[C@H](CO)O2)cc1F` [emtricitabine]: the “activity in vitro relative to lamivudine (3TC)” value with HIV (in vitro) is reported as 3- to 10 fold. With `C[C@H](Sc1nc(N)cc(Cl)n1)c1cc2ccoc2cn1` [PNU-142721], the “activity relative to its predecessor delavirdine” value in the experiment with HIV was 20- to 50 fold.
